Experimental findings from US20120264928A1, “THERAPEUTIC PHARMACEUTICAL AGENT FOR DISEASES ASSOCIATED WITH DECREASE IN FUNCTION OF GNE PROTEIN, FOOD COMPOSITION, AND FOOD ADDITIVE” (JAPAN HEALTH SCIENCES FOUNDATION, priority 2009, published 2012) are described below.

Assay [1] has as its system DMRV model mice. The assay is described as follows: Blood creatine kinase activity. Conditions: 20 mg/kg body weight/day in drinking water; vs placebo group. Type of assay: in vivo. The protocol:
(§1) 20 mg/kg body weight/day of ManNAc (N=6), NeuAc (N=5), or sialyllactose (N=7) dissolved in drinking water was administered to the DMRV model mice between 11- to 15-week old and 56- to 58-week old for 43 to 45 weeks. 40 mg (N=5) or 400 mg/kg body weight/day (N=4) of Ac4ManNAc dissolved in drinking water was administered to the DMRV model mice of the same ages for 43 to 47 weeks. Drinking water free of the pharmaceutical agents was supplied to mice in a placebo group.
(§2) During the administration of the pharmaceutical agent, the measurement of the body weight, the determination of the survival rate, blood collection (0, 25, and 49 days after the start of administration, and thereafter at intervals of 28 days), and a hanging test (0 and 49 days after the start of administration, and thereafter at intervals of 56 days) were performed at regular intervals. Survivors after the administration (ManNAc-treated group: N=5, NeuAc-treated group: N=5, sialyllactose group: N=6) were subjected to a treadmill test. A muscle tissue was then excised and was subjected to a muscle contraction test, the measurement of the amount of NeuAc, and pathological observation.
During the administration of the pharmaceutical agent, blood was collected from a tail of a mouse at regular intervals. The blood was centrifuged to prepare blood serum. Blood creatine activity was measured with a Determiner CPK-L kit (Kyowa Medex Co., Ltd.). The blood serum was electrophoresed using a Titan Gel Isoenzyme kit (Helen Laboratories) to identify creatine kinase. It is known that creatine kinase moves into blood when strenuous exercise or myopathy damages muscle fibers.

Assay [2] concerns DMRV model mice. Kind of assay: Treadmill test, endurance test. To be noted: vs placebo group. It is filed as in vivo. As to the method: as §1, §2
In order to familiarize a mouse with the apparatus, training was started one week prior to testing. In this period, the mouse was made to run on a slope of 7 degrees at a velocity in the range of 5 to 15 m/min for 30 minutes every day for 7 days. As a motor ability test, the velocity was increased by 10 m/min per minute from the initial velocity of 20 m/min. The accumulated running distance up to the point where the mouse could not run anymore was measured. As an endurance test, a mouse was made to run on a slope of 7 degrees at a velocity of 20 m/min for 60 minutes. The mouse was then made to run for another 3 minutes, during which the times of the electrical stimulation given to the mouse by a stimulation grid disposed at the end of the running lane were measured.

In assay [3] the test system is primary cultured cells of myotubes derived from the DMRV human patients. Kind of assay: Amount of NeuAc by HPLC in myotubes from DMRV human patients. Type of assay: cell-based. To be noted: three days, N=3. The source says: DMRV human patients are adult patients that have been diagnosed with DMRV by means of GNE gene mutation screening. (Number of patients: 42, the age of the onset of the disease: 20 to 30, sex: male and female) In accordance with a protocol approved by National Center of Neurology and Psychiatry, after obtaining informed consent, skeletal muscles (biceps brachii muscles and anterior tibial muscles) were collected from these patient volunteers under local anesthesia by means of biopsy.
The skeletal muscle tissues collected from the DMRV human patients or the model mice were lightly washed with PBS or Hank's balanced saline and were treated with 0.25% trypsin for 5 minutes. The tissues were finely cut into several millimeters with ophthalmic scissors, were digested with 0.4% collagenase II/0.25% trypsin at 37° C. for 30 minutes, and were left still to collect supernatant. The precipitate was again treated with the enzyme liquid. After being left still, the precipitate was well suspended in a DMEM-Ham's F-12 culture medium. The tissue suspension was passed through a nylon mesh to remove the tissues. The washings and the supernatant were centrifuged to collect cells. The cells thus collected were plated on a DMEM-Ham's F-12 culture medium at a cell density of 10^6 in a 100-mm plastic dish and were cultured at 37° C. in 5% CO2 for 4 to 7 days.
In the case that the sample was cultured cells, the cells were washed with PBS three times, and 400 p. 1 of 50 mM sulfuric acid was added to the cells. The cells were incubated at 80° C. for 60 minutes and were hydrolyzed to release NeuAc and NeuGc. In the case that the sample was a piece of tissue, the tissue was frozen, was pulverized with an air hammer, and was homogenized in a KCl-tris solution. […] The fluorescent derivative thus prepared was analyzed with HPLC (JASCO Corp.) using 0.05 to 5 nmol/μl Neu5Ac and Neu5Gc standards. The amount of protein from the tissue was measured with a Bio-Rad Protein Assay kit (Bio-Rad Laboratories).
[…] The amount of NeuAc in the cultured cells was measured by the HPLC method described above (N=3).

For assay [4], the system named is DMRV model mice. The assay is described as follows: Muscle contraction test. To be noted: vs placebo group. It is filed as in vivo. The protocol:
as §1, §2
After pentobarbital sodium (40 mg/kg body weight) was intraperitoneally administered to a mouse for anesthesia, a continuous muscle tissue of the tibialis anterior muscle and the gastrocnemius muscle was isolated. A terminal tendon of the isolated muscle tissue and the tibia were tied with a thread. The ends of the thread were connected at right angles to a tube for hanging a thread (a muscle length controller) and an isotonic transducer (TB-651T (for the gastrocnemius muscle) or TB-653TD-112S (for the tibialis anterior muscle), Nihon Kohden Corp.). The muscle tissue was placed in a lactated Ringer's solution (95% O2, 5% CO2). An electrostimulator (SEN-3301, Nihon Kohden Corp.) and an amplifier (PP-106H, Nihon Kohden Corp.) were used to expand the muscle tissue while providing 400 μs twitch stimulation. A length (L0) at which the maximum contractile force was produced and the contractile force (isometric contractile force: Pt) at that length were measured. While the muscle tissue was held at the length (L0) at which the contractile force was produced, the electrical stimulation was […] to 3 ms. The maximum contractile force (P0) was determined while 10- to 1000-Hz repetitive stimulation was provided 300 to 600 times at intervals of 2 minutes or more. After the measurement, the average cross-sectional area (CSA: muscle weight/L0) of the muscle tissue was calculated.

The test system of assay [5] is DMRV model mice. Kind of assay: Amount of NeuAc in muscle tissue of treated DMRV model mice. It is filed as in vivo. Conditions: vs placebo group. The protocol:
DMRV model mice were GNE^(−/−)hGNED176V-Tg described in Japanese Unexamined Patent Application Publication No. 2007-312641. Healthy litters having no GNE gene mutation were used as controls. The mice in the present example freely take water and feed and ingest 14 mg/kg body weight/day of N-acetylneuraminic acid compound on average.
In the case that the sample was cultured cells, the cells were washed with PBS three times, and 400 p. 1 of 50 mM sulfuric acid was added to the cells. The cells were incubated at 80° C. for 60 minutes and were hydrolyzed to release NeuAc and NeuGc. In the case that the sample was a piece of tissue, the tissue was frozen, was pulverized with an air hammer, and was homogenized in a KCl-tris solution. The precipitate was again washed with the KCl-tris solution and was hydrolyzed in 50 mM sulfuric acid at 80° C. for one hour to release NeuAc and NeuGc. 400 μl of 7 mmol 1,2-diamino-4,5-methylenedioxybenzene, dihydrochloride (MDB, Dojindo Laboratories) solution (15.8 mg MDB, 48.8 mg Na2S2O4, and 735 μl 2-mercaptoethanol were dissolved in distilled water so as to prepare a 10-ml solution) was added to the sample containing free NeuAc and NeuGc and was allowed to react at 60° C. for 2.5 hours. The fluorescent derivative thus prepared was analyzed with HPLC (JASCO Corp.) using 0.05 to 5 nmol/μl Neu5Ac and Neu5Gc standards. The amount of protein from the tissue was measured with a Bio-Rad Protein Assay kit (Bio-Rad Laboratories).
as §1, §2

Setting [6] is: 20 mg/kg body weight/day in drinking water.
[7] abbreviates: final concentration 0.005, 0.05, 0.5 or 5 mM.

As for `CC(=O)N[C@H]1[C@H]([C@H](O)[C@H](O)CO)OC(O)(C(=O)O)C[C@@H]1O` (stereo partly drawn) [NeuAc, N-acetylneuraminic acid], in the assay with DMRV model mice [1], the “blood creatine kinase activity” value is recorded as “significantly lower”. For the same molecule, the “times of electrical stimulation for 3 minutes” value (“times of electrical stimulation” for short) with DMRV model mice [2] (setting [6]) is reported as “significantly lower”. In assay [3] (setting [7]), the “amount of NeuAc in the cells” value is “effective in increasing the amount of NeuAc in the cells in a manner that depended on their doses”. Also, in the assay on DMRV model mice [4] (setting [6]), the “Pt per cross-sectional area of the muscle” value (“Pt per cross-sectional area” for short) is listed as “significantly higher”, the “cross-sectional area of the gastrocnemius muscle” value is recorded as “significantly higher” and the “specific contractile force of the gastrocnemius muscle (P0 per cross-sectional area of the muscle)” value is on record as “significantly higher”. Moreover, the “amount of NeuAc in the muscle tissue” value in the assay on DMRV model mice [5] (setting [6]) was “significantly higher”.

Take `CC(=O)N[C@H]1[C@H]([C@H](O)[C@H](O)CO)O[C@@](O[C@H]2[C@@H](O)[C@@H](CO)O[C@@H](O[C@H]3[C@H](O)[C@@H](O)C(O)O[C@@H]3CO)[C@@H]2O)(C(=O)O)C[C@@H]1O` (stereo partly drawn) [sialyllactose, NeuAcα2-3Galβ1-4Glc]: the “blood creatine kinase activity” value in the assay on DMRV model mice [1] is listed as “significantly lower”. For the same molecule, the “times of electrical stimulation” value in the assay on DMRV model mice [2] (setting [6]) is reported as “significantly lower”. Besides, in the assay with DMRV model mice [4] (setting [6]), the “Pt per cross-sectional area” value is given as “significantly higher”, the “cross-sectional area of the gastrocnemius muscle” value is reported as “significantly higher” and the “specific contractile force of the gastrocnemius muscle (P0 per cross-sectional area of the muscle)” value is on record as “significantly higher”. For the same molecule, the “amount of NeuAc in the muscle tissue” value with DMRV model mice [5] (setting [6]) was “significantly higher”.

For `CC(=O)N[C@@H]1C(O)O[C@H](CO)[C@@H](O)[C@@H]1O` (stereo partly drawn) [ManNAc, N-acetylmannosamine, reference compound], in the assay on DMRV model mice [1], the “blood creatine kinase activity” value is on record as “significantly lower”. Also, in the assay on DMRV model mice [2] (setting [6]), the “times of electrical stimulation” value is “significantly lower”. The “amount of NeuAc in the cells” value in assay [3] (setting [7]) is recorded as “effective in increasing the amount of NeuAc in the cells in a manner that depended on their doses”. Besides, in the assay with DMRV model mice [4] (setting [6]), the “Pt per cross-sectional area” value is listed as “significantly higher”, the “cross-sectional area of the gastrocnemius muscle” value is given as “significantly higher” and the “specific contractile force of the gastrocnemius muscle (P0 per cross-sectional area of the muscle)” value is “significantly higher”. The “amount of NeuAc in the muscle tissue” value with DMRV model mice [5] (setting [6]) is given as “significantly higher”.

As for `CC(=O)N[C@@H]1C(OC(C)=O)O[C@H](COC(C)=O)[C@@H](OC(C)=O)[C@@H]1OC(C)=O` (stereo partly drawn) [Ac4ManNAc, Tetra-O-acetyl-N-acetylmannosamine], the “times of electrical stimulation” value in the assay with DMRV model mice [2] (40 mg/kg) and in the assay on DMRV model mice [2] (400 mg/kg) was “significantly lower” in each case. Moreover, in assay [3] (final concentration 0.0002, 0.002, 0.02 or 0.2 mM), the “amount of NeuAc in the cells” value is listed as “effective in increasing the amount of NeuAc at low concentrations in a manner that depended on its dose”. For the same molecule, the “specific contractile force of the gastrocnemius muscle” value in the assay on DMRV model mice [4] (40 mg/kg) and in the assay on DMRV model mice [4] (400 mg/kg) was “significantly higher” each time. Besides, the “Pt per cross-sectional area” value with DMRV model mice [4] (400 mg/kg) is “significantly higher”. Also, the “amount of NeuAc in the muscle tissue” value with DMRV model mice [5] (400 mg/kg) is given as “significantly higher”.
